Results taken from US20250388592A1 (REMYND N.V., priority 2022, published 2025).

Tests used:
[1] = tested on: Tau-P301S transgenic mice; assay: Hippocampal long-term potentiation (CA3-CA1 fEPSP) in human Tau transgenic mice model of Alzheimer disease; format: in vivo, mouse; settings: 41-60 minute post-induction interval
From the text: The Tau-P301S line of mice was transgenic for the 383 aa isoform of human tau with the P301S mutation (Allen et al., 2002). In these mice, a clinical mutant of the human Tau (P301S) was expressed under control of the murine Thy1 promoter (neuron-specific expression) in C57Bl/6JxCBA/ca background. The homozygous hTauP301S-Tg model used consisted of the progeny from a cross between two homozygous hTauP301S-Tg parental mice in C57Bl/6JxCBA/ca background, bred in SPF breeding conditions.
Six mice (3,5 months of age) per group were treated orally once daily for 7 days with vehicle or 0.4, 2 or 10 mg/kg cpd B061, or twice daily for 7 days with vehicle or 25 mg/kg cpd B112, formulated in labrasol/capryol (70/30% W/V). A wild type vehicle group was included as well. The mice in study were sacrificed after a minimum of 7 days of acclimatization and 7 days of dosing. LTP measurements occurred between 90 and 120 minutes after excision of the brain.
Mice were anaesthetized with isoflurane and then decapitated. Heads were immediately immersed in ice-cold freshly prepared artificial CSF (cerebrospinal fluid) (aCSF) for at least 2 min before brain extraction. Acute slices (400 μm thick) were prepared with a vibratome (VT 1000S; Leica Microsystems, Bannockburn, IL) in ice-cold gassed aCSF. Sections were incubated in aCSF at 34° C. for 20 min and then kept at room temperature for at least 1 h before recording. aCSF was composed of the following (in mM): 119 NaCl, 11 d-glucose, 1.3 MgCl2·6H2O, 1.3 NaH2PO4, 2.5 KCl, 2.5 CaCl2, 26 NaHCO3, gassed with O2/CO2 (95/5%) at least 20 min before use and throughout the experiment.
Recordings were performed in a submerged chamber continuously flowed with aCSF at 2 ml/min. Extracellular field excitatory postsynaptic potentials (fEPSPs) were recorded in the CA1 stratum radiatum using a glass micropipette filled with aCSF. fEPSPs were evoked by the electrical

M17_3TAU(P301L) cells = assay: TAU-induced cytotoxicity (LDH) in the neuroblastoma tauopathy model; format: cell-based; settings: Homo sapiens, 168 h, inhibition of TAU-induced toxicity, 7 days retinoic acid differentiation, LDH readout
Summary of the method: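 Stably transfected BE-M17 cells expressing human TAU-P301L, seeded in serum-free detection medium, then differentiated with 2.5 μM RA (added in equal volume) for 7 days at 37° C/5% CO2 to induce TAU aggregation. Cytotoxicity = supernatant LDH increase over total LDH; EC50 from dose-dependent inhibition curves.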

| Compound | EC50 (M17_3TAU(P301L) cells) | further results |
| --- | --- | --- |
| O=C(Cc1ccc(Cl)cc1)N1CC2(CN(Cc3ccc(F)cc3)C2)C1 [Cpd B061, 2-(4-chlorophenyl)-1-(6-(4-fluorobenzyl)-2,6-diazaspiro[3.3]heptan-2-yl)ethanone] | 2.46 nM | Average fEPSP slope (% of baseline) ([1]; 0.4 mpk orally once daily for 7 days): 129.0 % of baseline; Average fEPSP slope (% of baseline) ([1]; 2 mpk orally once daily for 7 days): 152.2 % of baseline; Average fEPSP slope (% of baseline) ([1]; 10 mpk orally once daily for 7 days): 169.3 % of baseline |
| O=C(CC1CCC(F)(F)CC1)N1CC2(CN(Cc3ncccc3C(F)(F)F)C2)C1 [Cpd B112] | 12.2 nM | Average fEPSP slope (% of baseline) ([1]; 25 mpk orally twice daily for 7 days): 144.4 % of baseline |
| Cc1nc(CN2CC3(C2)CN(C(=O)CC2CCC(F)(F)CC2)C3)sc1C [Cpd B451] | 106 nM |  |
| Cc1nc(CN2CC3(C2)CN(C(=O)Nc2ccc(Cl)cc2)C3)cs1 [Cpd B452] | 94.5 nM |  |
| O=C(NCC1CCC(F)(F)CC1)N1CC2(CN(Cc3ccc(F)cn3)C2)C1 [Cpd B453] | 83.6 nM |  |
| O=C(NC1CCCCC1)N1CC2(CN(Cc3ccc(F)cc3)C2)C1 [Cpd B454] | 76.6 nM |  |
| COc1cccc(CN2CC3(C2)CN(C(=O)CC2CCCC2)C3)c1 [Cpd B455] | 74.5 nM |  |
| Cc1ncc(CN2CC3(C2)CN(C(=O)CC2CCC(F)(F)CC2)C3)s1 [Cpd B456] | 73.9 nM |  |
| O=C(NC1CCC(F)(F)CC1)N1CC2(CN(Cc3ccc(Cl)cn3)C2)C1 [Cpd B457] | 71.5 nM |  |
| Cn1cnc(CN2CC3(C2)CN(C(=O)CC2CCC(F)(F)CC2)C3)c1Cl [Cpd B458] | 65.5 nM |  |
| O=C(NCC1CCC(F)(F)CC1)N1CC2(CN(Cc3c(F)cccc3C(F)(F)F)C2)C1 [Cpd B459] | 64.8 nM |  |
| O=C(NC1CCC(F)(F)CC1)N1CC2(CN(Cc3ccc(C(F)(F)F)cc3)C2)C1 [Cpd B460] | 63 nM |  |
| Cc1c(CN2CC3(C2)CN(C(=O)CC2CCC(F)(F)CC2)C3)cnn1C [Cpd B461] | 56.5 nM |  |
| Cn1ccc(CN2CC3(C2)CN(C(=O)CC2CCC(F)(F)CC2)C3)n1 [Cpd B462] | 53.1 nM |  |
| COc1cccc(CN2CC3(C2)CN(C(=O)OCc2ccc(Cl)cc2)C3)c1 [Cpd B463] | 41.7 nM |  |
| O=C(CC1CCC(F)(F)CC1)N1CC2(CN(Cc3ncccc3F)C2)C1 [Cpd B464] | 40.1 nM |  |
| O=C(Nc1ccc(OC(F)F)cc1)N1CC2(CN(Cc3ccc(F)cc3)C2)C1 [Cpd B465] | 38.1 nM |  |
| O=C(Nc1cccc(Cl)c1)N1CC2(CN(Cc3ccc(F)cc3)C2)C1 [Cpd B466] | 18.6 nM |  |
